In brackets after ≈: the same amount, converted by molar mass.
Assays:
M. tuberculosis P2SP1 = test: Anti-mycobacterium in vitro activity, P2SP1; format: cell-based, Mycobacterium tuberculosis; conditions: Multi-drug resistant strain; for MIC: Mycobacterium tuberculosis, P2SP1
M. tuberculosis P1SP2 = test: Anti-mycobacterium in vitro activity, P1SP2; format: cell-based, Mycobacterium tuberculosis; conditions: Multi-drug resistant strain; for MIC: Mycobacterium tuberculosis, P1SP2

Oc1cccc2cccnc12 [Compound 10, 8-hydroxyquinoline]
M. tuberculosis MIC P2SP1 (M. tuberculosis P2SP1): 0.387 µg/mL | M. tuberculosis MIC P1SP2 (M. tuberculosis P1SP2): 0.387 µg/mL

Nc1ccc(C(=O)O)c(O)c1 [p-aminosalicylate]
M. tuberculosis MIC P2SP1 (M. tuberculosis P2SP1): 32 µg/mL | M. tuberculosis MIC P1SP2 (M. tuberculosis P1SP2): 16 µg/mL

CC1COc2c(N3CCN(C)CC3)c(F)cc3c(=O)c(C(=O)O)cn1c23 (stereo not shown) [Ofloxacin]
MIC (M. tuberculosis P2SP1): 32 µg/mL (≈ 88.6 µM) | MIC (M. tuberculosis P1SP2): 16 µg/mL (≈ 44.3 µM)

Oc1cccc2cccnc12 [Compound 75, 8-hydroxyquinoline]
M. tuberculosis MIC P2SP1 (M. tuberculosis P2SP1): 0.775 µg/mL | M. tuberculosis MIC P1SP2 (M. tuberculosis P1SP2): 0.775 µg/mL

Oc1cccc2cccnc12 [Compound 53, 8-hydroxyquinoline]
M. tuberculosis MIC P2SP1 (M. tuberculosis P2SP1): 0.775 µg/mL | M. tuberculosis MIC P1SP2 (M. tuberculosis P1SP2): 0.387 µg/mL

CO[C@H]1/C=C/O[C@@]2(C)Oc3c(C)c(O)c4c(O)c(c(/C=N/N5CCN(C)CC5)c(O)c4c3C2=O)NC(=O)/C(C)=C\C=C\[C@H](C)[C@H](O)[C@@H](C)[C@@H](O)[C@@H](C)[C@H](OC(C)=O)[C@@H]1C [Rifampicin]
MIC (M. tuberculosis P2SP1): 16 µg/mL (≈ 19.4 µM) | MIC (M. tuberculosis P1SP2): > 16 µg/mL

[H]/N=C(/N)N[C@H]1[C@H](O)[C@@H](O)[C@H](O[C@@H]2O[C@@H](C)[C@](O)(C=O)[C@H]2O[C@@H]2O[C@@H](CO)[C@H](O)[C@@H](O)[C@@H]2NC)[C@@H](N/C(N)=N\[H])[C@@H]1O [Streptomycin]
MIC (M. tuberculosis P2SP1): < 2 µg/mL | MIC (M. tuberculosis P1SP2): < 2 µg/mL

Oc1cccc2cccnc12 [Compound 55, 8-hydroxyquinoline]
M. tuberculosis MIC P2SP1 (M. tuberculosis P2SP1): 0.775 µg/mL | M. tuberculosis MIC P1SP2 (M. tuberculosis P1SP2): 0.387 µg/mL

CC[C@@H](CO)NCCN[C@@H](CC)CO [Ethambutol]
MIC (M. tuberculosis P2SP1): 8 µg/mL (≈ 39.2 µM) | MIC (M. tuberculosis P1SP2): 8 µg/mL (≈ 39.2 µM)

Oc1cccc2cccnc12 [Compound 65, 8-hydroxyquinoline]
M. tuberculosis MIC P2SP1 (M. tuberculosis P2SP1): 0.775 µg/mL | M. tuberculosis MIC P1SP2 (M. tuberculosis P1SP2): 0.775 µg/mL

Oc1cccc2cccnc12 [Compound 72, 8-hydroxyquinoline]
M. tuberculosis MIC P2SP1 (M. tuberculosis P2SP1): 0.775 µg/mL | M. tuberculosis MIC P1SP2 (M. tuberculosis P1SP2): 0.775 µg/mL

Oc1cccc2cccnc12 [Compound 50, 8-hydroxyquinoline]
M. tuberculosis MIC P2SP1 (M. tuberculosis P2SP1): 0.387 µg/mL | M. tuberculosis MIC P1SP2 (M. tuberculosis P1SP2): 0.387 µg/mL

CCc1cc(C(N)=S)ccn1 [Ethionamide]
MIC (M. tuberculosis P2SP1): > 64 µg/mL | MIC (M. tuberculosis P1SP2): 32 µg/mL (≈ 192 µM)

Oc1cccc2cccnc12 [Compound 51, 8-hydroxyquinoline]
M. tuberculosis MIC P2SP1 (M. tuberculosis P2SP1): 0.387 µg/mL | M. tuberculosis MIC P1SP2 (M. tuberculosis P1SP2): 0.387 µg/mL

NNC(=O)c1ccncc1 [Isoniazid (INH), Isoniazid]
MIC (M. tuberculosis P2SP1): > 8 µg/mL | MIC (M. tuberculosis P1SP2): > 8 µg/mL

NC[C@H]1O[C@H](O[C@H]2[C@H](O)[C@@H](O[C@H]3O[C@H](CO)[C@@H](O)[C@H](N)[C@H]3O)[C@H](N)C[C@@H]2N)[C@H](O)[C@@H](O)[C@@H]1O [Kanamycin]
MIC (M. tuberculosis P2SP1): < 2 µg/mL | MIC (M. tuberculosis P1SP2): < 2 µg/mL

N[C@@H]1CON=C1O [cycloserine]
MIC (M. tuberculosis P2SP1): 8 µg/mL (≈ 78.4 µM) | MIC (M. tuberculosis P1SP2): 8 µg/mL (≈ 78.4 µM)

Source: patent US7390806B2, “Antibiotics containing borinic acid complexes and methods of use” (Anacor Pharmaceuticals, Inc., priority 2002, dated 2008)
